Values quoted from earlier work as cited in publication PMC9503778, “Targeted Isolation of Antibiotic Brominated Alkaloids from the Marine Sponge Pseudoceratina durissima Using Virtual Screening and Molecular Networking” (Marine Drugs, 2022).

What was measured:
[1] = system: zebrafish larvae at 5 dpf; set-up: method as in PMID 35200664; conditions: cited from earlier work
[2] = system: reef fish (Acanthus triostegus); set-up: method as in PMID 29702602; conditions: dosed feeding experiments; cited from earlier work
[3] = system: fresh water fish (Poecilia reticulata); set-up: method as in PMID 29702602; conditions: dosed feeding experiments; cited from earlier work
[4] = system: fish; set-up: method as in PMID 29702602; conditions: 100 µg/mL; cited from earlier work

SMILES	concentration giving significant larval mortality [1] [nM]	feeding behavior of reef fish (Acanthus triostegus) [2]	feeding behavior of fresh water fish (Poecilia reticulata) [3]	fish behavior during acute exposure [4]
COC1=C(Br)[C@H](O)[C@@]2(C=C1Br)CC(C(=O)NCCCc1cnc(N)[nH]1)=NO2 [aerophobin-2]	> 1000			
CN(C)CCCOc1c(Br)cc(/C=C/C(=O)N(C)CCCOc2c(Br)cc(CCN(C)C)cc2Br)cc1Br [psammaplysene D]		significant curtailing in feeding behavior	significant curtailing in feeding behavior	the fish became totally confused and experienced uncontrolled mobility
COC1=C(Br)[C@@H](O)[C@]2(C=C1Br)CC(C(=O)NCCc1cnc[nH]1)=NO2 [aerophobin-1]	> 1000			
